Reference: patent US11951113B2, “Synergestic combination composition comprising a steroidal saponin, a first polyphenolic compound and a second polyphenolic compound” (NEURALIA, priority 2018, dated 2024)

Tested on: primary cortical neurons injured by glutamate
Test: Neuroprotection of primary cortical neurons injured by glutamate: neuron survival and neurite network (MAP-2 staining)
Format: cell-based, rat
Conditions: for effect on neuritic network / effect on neuron survival: glutamate 40 μM
Method: Rat cortical neurons were cultured as described by Singer et al., (J. Neuroscience, (1999), 19(7), 2455-2463) and Callizot et al. (J. Neurosc., (2013), Res. 91(5), 706-716).
Pregnant females (Wistar; JanvierLabs, St Berthevin, France) at 15 days of gestation were killed by cervical dislocation. Foetuses were collected and immediately placed in ice-cold L15 Leibovitz medium (Pan Biotech, Aidenbach, Germany) with a 2% penicillin (10,000 U/ml) and streptomycin (10 mg/ml) solution (PS; Pan Biotech, Aidenbach, Germany) and 1% bovine serum albumin (BSA; Pan Biotech, Aidenbach, Germany). Cortex was treated for 20 min at 37° C. with a trypsin-EDTA (Pan Biotech, Aidenbach, Germany) solution at a final concentration of 0.05% trypsin and 0.02% EDTA. The dissociation was stopped by addition of Dulbecco's modified Eagle's medium (DMEM) with 4.5 g/liter of glucose (Pan Biotech, Aidenbach, Germany), containing DNAse I grade II (final concentration 0.5 mg/ml; Pan Biotech, Germany) and 10% fetal calf serum (FCS; Invitrogen, Cergy Pointoise, France). Cells were mechanically dissociated by three forced passages through the tip of a 10-ml pipette. Cells were then centrifuged at 515 g for 10 min at 4° C. The supernatant was discarded, and the pellet was resuspended in a defined culture medium consisting of Neurobasal medium (Invitrogen, Cergy Pointoise, France) with a 2% solution of B27 supplement (Invitrogen, Cergy Pointoise, France), 2 mmol/liter of L-glutamine (Pan Biotech, Aidenbach, Germany), 2% of PS solution, and 10 ng/ml of brain-derived neurotrophic factor (BDNF; Pan Biotech, Aidenbach, Germany). Viable cells were counted in a Neubauer cytometer, using the trypan blue exclusion test. The cells were seeded at a density of 30,000 per well in 96-well plates precoated with poly-L-lysine (Corning Biocoat, Tewksbury, USA) and were cultured at 37° C. in an air (95%)-CO2 (5%) incubator. The medium was changed every 2 days. The cortical neurons were intoxicated with glutamate solutions (see below) after 13 days of culture.
On day 13, glutamate (Sigma Aldrich, Lyon, France) was added into cell culture to a final concentration of 40 μM diluted in control medium in presence or absence of test compounds for 20 min. After 20 min, the cells were washed-out and new fresh medium containing or not NSPXX-E2 or NSPXX-E1 extracts was added for 48 h additional time.
After 48 hours of glutamate intoxication, cells were fixed by a cold solution of ethanol (95%, Sigma) and acetic acid (5%, Sigma) for 5 min at −20° C. After permeabilization with 0.1% of saponin (Sigma), cells were incubated for 2 h with mouse monoclonal antibody anti microtubule-associated-protein 2 (MAP-2; Sigma) at dilution of 1/400 in PBS (Pan biotech) containing 1% foetal calf serum (Invitrogen) and 0.1% of saponin.
For each condition 6 wells were assessed, 30 pictures per well were taken using MetaXpress (molecular device) with 20× magnification (30 pictures at X20 representing ˜80% of the total well surface), to assess neurite network (MAP-2 staining). Analysis of picture was done using MetaXpress custum module editor software (molecular device), the total neurite length per picture was recorded). A mean neurite length of the ten pictures was automatically calculated per well, then one data was provided per well (total of 6 raw data were provided per condition).
For each condition 6 wells were assessed, 30 pictures per well were taken using MetaXpress (molecular device) with 20× magnification to assess cell bodies (MAP-2 staining). Analysis of picture was done using MetaXpress custum module editor software (molecular device), the number of neurons per picture was recorded. A mean of neuron number of the […] pictures was automatically calculated per well, then one data was provided per well (total of 6 raw data were provided per condition).
All values were expressed as mean+/−s.e.mean. […]

Compound: C[C@@H]1CC[C@@]2(OC1)O[C@H]1C[C@H]3[C@@H]4CC=C5C[C@@H](O[C@@H]6O[C@H](CO)[C@@H](O[C@@H]7O[C@@H](C)[C@H](O)[C@@H](O)[C@H]7O)[C@H](O)[C@H]6O[C@@H]6O[C@@H](C)[C@H](O)[C@@H](O)[C@H]6O)CC[C@]5(C)[C@H]4CC[C@]3(C)[C@H]1[C@@H]2C [DIOS, dioscin]
- effect on neuritic network (6.3 nM-630 nM, 20 min): significant protective effect

Compound: C[C@@H]1CC[C@@]2(OC1)O[C@H]1C[C@H]3[C@@H]4CC=C5C[C@@H](O)CC[C@]5(C)[C@H]4CC[C@]3(C)[C@H]1[C@@H]2C [DIOSG, diosgenin]
- effect on neuritic network (3 pM-30 pM, 20 min): significant protective effect
- reduction of the concentration of diosgenin compared to diosgenin used alone (diosgenin combined with caffeic acid or ferulic acid): 10 fold

Compound: COc1cc(/C=C/C(=O)O)ccc1O [FA, ferulic acid]
- effect on neuritic network (1 μM-100 μM, 20 min): significant protective effect

Compound: O=C(O)c1cc(O)c(O)c(O)c1 [Gallic acid, gallic acid]
- viability at 10 µM (Rattus norvegicus, Primary cortical neuron, 20 min): ~80%
- effect on neuritic network (between 10 pM and 1 μM, 20 min): significant protective effect

Compound: C[C@H]1CC[C@@]2(OC1)O[C@H]1C[C@H]3[C@@H]4CC[C@@H]5C[C@@H](O)CC[C@]5(C)[C@H]4CC[C@]3(C)[C@H]1[C@@H]2C [SAR, sarsasapogenin]
- effect on neuritic network (100 pM-100 nM, 20 min): protective effect
- effect on neuron survival (100 nM, 20 min): significant protective effect
- toxicity for cortical neurons and for neuritic network (1 μmol/L or 10 μmol/L): toxic
- toxicity on cortical neurons (at the highest concentrations tested): toxic
- effect on neuritic network (between 100 pM and 10 nM, 20 min): significant protective effect
- reduction of the steroidal saponin concentration compared to sarsasapogenin used alone (sarsasapogenin combined with caffeic acid or ferulic acid): 10 fold

Compound: O=c1c(O)c(-c2ccc(O)c(O)c2)oc2cc(O)cc(O)c12 [quercetin]
- effect on neurite network (100 nM and 1 μM, glutamate injury): significant protective effect

Compound: catechin
- effect on neuritic network (1 nM-1 μM, 20 min): protective effect
- effect on neuron survival (between 100 nM and 1 μM, 20 min): significant protective effect
- effect on neuritic network (between 500 nM and 5 μM, 20 min): significant protective effect
